{"source": "paper PMC7839234", "about": "(FASEB journal : official publication of the Federation of …, 2020)", "assay_type_in_all_cases": "cell-based", "key": {"SLC22A15 [1]": {"target": "T1, SLC22A15 (Homo sapiens, UniProt Q8IZD6)", "T1 sequence (Q8IZD6 whole entry)": "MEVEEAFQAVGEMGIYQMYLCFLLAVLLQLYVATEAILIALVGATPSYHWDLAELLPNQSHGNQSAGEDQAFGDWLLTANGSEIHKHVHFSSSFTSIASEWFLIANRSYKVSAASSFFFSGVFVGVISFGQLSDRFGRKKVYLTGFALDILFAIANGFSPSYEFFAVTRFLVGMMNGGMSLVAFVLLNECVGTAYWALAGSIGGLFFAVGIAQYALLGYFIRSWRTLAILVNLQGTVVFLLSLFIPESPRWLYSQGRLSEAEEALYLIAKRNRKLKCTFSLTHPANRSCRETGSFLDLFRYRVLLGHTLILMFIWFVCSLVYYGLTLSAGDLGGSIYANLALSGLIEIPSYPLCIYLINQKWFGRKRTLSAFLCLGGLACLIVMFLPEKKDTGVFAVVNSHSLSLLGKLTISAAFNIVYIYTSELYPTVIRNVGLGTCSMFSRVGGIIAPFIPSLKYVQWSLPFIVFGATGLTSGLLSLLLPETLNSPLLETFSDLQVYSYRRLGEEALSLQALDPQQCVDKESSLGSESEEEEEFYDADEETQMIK"}, "SLC22A15 [2]": {"target": "T1, SLC22A15", "assay": "radiolabelled uptake in transfected HEK293 Flp-In cells"}, "SLC22A4": {"target": "T2, SLC22A4 (Homo sapiens, UniProt Q9H015)", "T2 sequence (Q9H015 1-551)": "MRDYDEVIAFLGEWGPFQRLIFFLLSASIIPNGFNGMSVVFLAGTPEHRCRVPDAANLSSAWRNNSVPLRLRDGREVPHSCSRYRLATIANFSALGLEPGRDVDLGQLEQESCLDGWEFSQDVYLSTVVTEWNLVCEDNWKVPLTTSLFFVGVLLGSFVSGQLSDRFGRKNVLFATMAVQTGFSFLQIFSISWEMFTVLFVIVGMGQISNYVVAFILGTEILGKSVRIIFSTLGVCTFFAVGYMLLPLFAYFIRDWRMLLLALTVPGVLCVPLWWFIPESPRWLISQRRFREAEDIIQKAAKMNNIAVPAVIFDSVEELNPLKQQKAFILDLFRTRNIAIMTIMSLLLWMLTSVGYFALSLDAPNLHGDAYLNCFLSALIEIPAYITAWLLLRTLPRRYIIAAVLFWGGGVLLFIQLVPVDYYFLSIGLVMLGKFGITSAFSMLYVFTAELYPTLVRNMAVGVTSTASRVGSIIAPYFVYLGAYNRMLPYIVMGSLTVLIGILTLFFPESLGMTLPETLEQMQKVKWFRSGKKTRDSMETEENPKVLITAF", "assay": "radiolabelled uptake in transfected HEK293 Flp-In cells"}}}
{"smiles": "O=S(=O)(O)CCN1CCN(CCO)CC1", "note": "[HEPES, 4-(2-hydroxyethyl)-1-piperazineethanesulfonic acid]", "values": [{"measurement": "IC50", "setting": "SLC22A15 [1]", "value": "5.8 ± 1.4", "unit": "mM"}]}
{"smiles": "C[N+](C)(C)CC(=O)O", "note": "[betaine]", "values": [{"measurement": "radiolabelled uptake in transfected HEK293 Flp-In cells", "setting": "SLC22A15 [2]", "value": "highest fold-uptake over empty vector were the zwitterions: ergothioneine, carnosine and betaine"}]}
{"smiles": "C[N+](C)(C)[C@@H](Cc1c[nH]c(=S)[nH]1)C(=O)[O-]", "note": "[ergothioneine]", "values": [{"measurement": "radiolabelled uptake in transfected HEK293 Flp-In cells", "setting": "SLC22A4", "value": "only SLC22A4 and SLC22A15 showed significant uptake of ergothioneine over EV cells (Fig. 3B)"}]}
